Results published in patent publication US11891359B2, “Prenylated psilocybin derivatives and methods of using” (ENVERIC B[…] INC., priority 2021, dated 2024).

Experiment: Solubility in the one-pot biocatalysis reaction mixture
Assay type: physicochemical
Conditions: undiluted one-pot biocatalysis reaction mixture (5 mL), 30 °C, aqueous buffer; undiluted 5 mL reaction (25 mM Tris-HCl pH 8.0); dilution to 40 mL and pH 6 increased solubility
Experimental: Referring further to FIG. 13A, Step 1 was conducted in vitro using biocatalytic conversion. Three recombinant enzymes, the prenyl transferase PriB (SEQ.ID NO: 24), in addition to PhoNxt (SEQ.ID NO: 30), and IPKmt (SEQ.ID NO: 32) were individually expressed in E. coli using the following plasmids, respectively: pET26b(+)-PriB, pET28a(+)-IPKmt, and pET21(+)-PhoNxt. Prenyl transferase PriB (SEQ.ID NO: 24) catalyzes the stereospecific 6-prenylation of tryptophan with dimethylallyl pyrophosphate (DMAPP) as the prenyl-donor. A cDNA encoding PriB enzyme (SEQ.ID NO: 23) was synthesized and cloned into pET26b(+) vector by service provider GenScript (www.genscript.com) in-frame with a vector-encoded, N-terminal HIS epitope tag. PhoNxt (SEQ.ID NO: 30) is a non-specific acid phosphatase, while IPKmt (SEQ.ID NO: 32) is an isopentenyl phosphate kinase. Together, these two enzymes can use dimethylallyl alcohol (DMAOH) (www.sigmaaldrich.com) as the starting substrate to produce DMAPP, which in turn is a required co-substrate for PriB. cDNAs encoding IPkmt (SEQ.ID NO: 31) and PhoNxt (SEQ.ID NO: 29) were synthesized and cloned into E.coli expression vectors pET28a(+) and pET21(+), respectively using the Clonal Genes service of Twist Bioscience. Specifically, IPKmt was cloned between the NdeI and XhoI sites of pET28a(+) thus enabling an in-frame, N-terminal HIS tag in the corresponding protein. […]

With `CC(C)=CCc1ccc2c(C[C@H](N)C(=O)O)c[nH]c2c1` [6-dimethylallyl-tryptophan] the solubility was < 1100 µg/mL.
